Assay results reported in PMC9866191, “Novel 9-Benzylaminoacridine Derivatives as Dual Inhibitors of Phosphodiesterase 5 and Topoisomerase II for the Treatment of Colon Cancer” (Molecules, 2023).

Tests used:
Assay in all cases: NCI-60 one-dose screen
Type in all cases: cell-based
SN12C = details: Homo sapiens, Renal Cancer panel, single dose 10^−5 M, read-out: Growth inhibition %
NCI/ADR-RES = details: Homo sapiens, Ovarian Cancer panel, single dose 10^−5 M, read-out: Growth inhibition %
SK-MEL-2 = details: Homo sapiens; SK-MEL-2, Melanoma panel; single dose 10^−5 M; read-out: Growth inhibition %
A549/ATCC = details: Homo sapiens, Non-small cell lung panel, single dose 10^−5 M, read-out: Growth inhibition %
SF-539 = details: Homo sapiens; SF-539, CNS Cancer panel; single dose 10^−5 M; read-out: Growth inhibition %
NCI-H322M = details: Homo sapiens, Non-small cell lung panel, single dose 10^−5 M, read-out: Growth inhibition %
PC-3 = details: Homo sapiens; PC-3, Prostate Cancer panel; single dose 10^−5 M; read-out: Growth inhibition %
NCI-H23 = details: Homo sapiens; NCI-H23, Non-small cell lung panel; single dose 10^−5 M; read-out: Growth inhibition %
MALME-3M = details: Homo sapiens, Melanoma panel, single dose 10^−5 M, read-out: Growth inhibition %
NCI-H460 = details: Homo sapiens; NCI-H460, Non-small cell lung panel; single dose 10^−5 M; read-out: Growth inhibition %
M14 = details: Homo sapiens; M14, Melanoma panel; single dose 10^−5 M; read-out: Growth inhibition %
SF-295 = details: Homo sapiens; SF-295, CNS Cancer panel; single dose 10^−5 M; read-out: Growth inhibition %
UACC-257 = details: Homo sapiens; UACC-257, Melanoma panel; single dose 10^−5 M; read-out: Growth inhibition %
HOP-62 = details: Homo sapiens; HOP-62, Non-small cell lung panel; single dose 10^−5 M; read-out: Growth inhibition %
MDA-MB-468 = details: Homo sapiens; MDA-MB-468, Breast Cancer panel; single dose 10^−5 M; read-out: Growth inhibition %
RXF 393 = details: Homo sapiens; RXF 393, Renal Cancer panel; single dose 10^−5 M; read-out: Growth inhibition %
A498 = details: Homo sapiens; A498, Renal Cancer panel; single dose 10^−5 M; read-out: Growth inhibition %
HCT-116 = details: Homo sapiens, read-out: Growth inhibition %
HOP-92 = details: Homo sapiens; HOP-92, Non-small cell lung panel; single dose 10^−5 M; read-out: Growth inhibition %
RPMI-8226 = details: Homo sapiens; RPMI-8226, Leukemia panel; single dose 10^−5 M; read-out: Growth inhibition %
SNB-19 = details: Homo sapiens; SNB-19, CNS Cancer panel; single dose 10^−5 M; read-out: Growth inhibition %
HCC-2998 = details: Homo sapiens; HCC-2998, Colon Cancer panel; single dose 10^−5 M; read-out: Growth inhibition %
MCF7 = details: Homo sapiens; MCF7, Breast Cancer panel; single dose 10^−5 M; read-out: Growth inhibition %
TK-10 = details: Homo sapiens; TK-10, Renal Cancer panel; single dose 10^−5 M; read-out: Growth inhibition %
T-47D = details: Homo sapiens, T47D, Breast Cancer panel, single dose 10^−5 M, read-out: Growth inhibition %
NCI-H522 = details: Homo sapiens; NCI-H522, Non-small cell lung panel; single dose 10^−5 M; read-out: Growth inhibition %
U251 = details: Homo sapiens, U-251; U251, CNS Cancer panel; single dose 10^−5 M; read-out: Growth inhibition %
SK-OV-3 = details: Homo sapiens; SK-OV-3, Ovarian Cancer panel; single dose 10^−5 M; read-out: Growth inhibition %
UACC-62 = details: Homo sapiens; UACC-62, Melanoma panel; single dose 10^−5 M; read-out: Growth inhibition %
OVCAR-5 = details: Homo sapiens; OVCAR-5, Ovarian Cancer panel; single dose 10^−5 M; read-out: Growth inhibition %
OVCAR-4 = details: Homo sapiens; OVCAR-4, Ovarian Cancer panel; single dose 10^−5 M; read-out: Growth inhibition %
LOX IMVI = details: Homo sapiens, Melanoma panel, single dose 10^−5 M, read-out: Growth inhibition %

Row | Structure (SMILES) | inhibition at 10 µM (SN12C) [%] | inhibition at 10 µM (NCI/ADR-RES) [%] | inhibition at 10 µM (SK-MEL-2) [%] | inhibition at 10 µM (A549/ATCC) [%] | inhibition at 10 µM (SF-539) [%] | inhibition at 10 µM (NCI-H322M) [%] | inhibition at 10 µM (PC-3) [%] | inhibition at 10 µM (NCI-H23) [%] | inhibition at 10 µM (MALME-3M) [%] | inhibition at 10 µM (NCI-H460) [%] | inhibition at 10 µM (M14) [%] | inhibition at 10 µM (SF-295) [%] | inhibition at 10 µM (UACC-257) [%] | inhibition at 10 µM (HOP-62) [%] | inhibition at 10 µM (MDA-MB-468) [%] | inhibition at 10 µM (RXF 393) [%] | inhibition at 10 µM (A498) [%] | inhibition at 10 µM (HCT-116) [%] | inhibition at 10 µM (HOP-92) [%] | inhibition at 10 µM (RPMI-8226) [%] | also measured
1 | COc1cccc(CNc2c3ccccc3nc3ccccc23)c1 [Compound 6, Acridin-9-yl-(3-methoxybenzyl)-amine] | 62.1 | 62.5 | 32.1 | 69.8 | 80.6 | 56 | 61.1 | 62.7 | 56 | 90 | 64.8 | 64 | 45 | 53.5 | 86.4 | 86.2 | 96.3 | 90.1 | 74.5 | 83.3 | inhibition at 10 µM (SNB-19): 64%; inhibition at 10 µM (HCC-2998): 60.7%; inhibition at 10 µM (MCF7): 85.4%; inhibition at 10 µM (TK-10): 48.3%; inhibition at 10 µM (T-47D): 54.1%; inhibition at 10 µM (NCI-H522): 38.3%; inhibition at 10 µM (U251): 61.3%; inhibition at 10 µM (SK-OV-3): 45.3%; inhibition at 10 µM (UACC-62): 36.5%; inhibition at 10 µM (OVCAR-5): 54.1%; inhibition at 10 µM (OVCAR-4): 56.4%; inhibition at 10 µM (LOX IMVI): 80.2%
2 | COc1ccc(CNc2c3ccccc3nc3ccccc23)cc1 [Compound 7, Acridin-9-yl-(4-methoxybenzyl)-amine] | 67.8 | 61.2 | 39.9 | 71.1 | 72.5 | 52.9 | 66 | 61.2 | 60 | 90.3 | 62.9 | 60.9 | 47.7 | 46.1 | 72.9 | 72.4 | 90 | 90.5 | 75.5 | 84.2 | inhibition at 10 µM (SNB-19): 66%; inhibition at 10 µM (HCC-2998): 61.4%; inhibition at 10 µM (MCF7): 87.4%; inhibition at 10 µM (TK-10): 50.5%; inhibition at 10 µM (T-47D): 55.1%; inhibition at 10 µM (NCI-H522): 47%; inhibition at 10 µM (U251): 63.5%; inhibition at 10 µM (SK-OV-3): 46.2%; inhibition at 10 µM (UACC-62): 44.2%; inhibition at 10 µM (OVCAR-5): 53.6%; inhibition at 10 µM (OVCAR-4): 59.7%; inhibition at 10 µM (LOX IMVI): 79.1%
3 | Fc1ccccc1CNc1c2ccccc2nc2ccccc12 [Compound 8, Acridin-9-yl-(2-fluorobenzyl)-amine] | 60.4 | 62 | 21.8 | 65.9 | 68.9 | 49.7 | 52.9 | 55.9 | 55.3 | 86.5 | 46 | 48.2 | 41.2 | 47.5 | 78.2 | 51.2 | 89.1 | 86.1 | 77.3 | 87.7 | inhibition at 10 µM (SNB-19): 56.1%; inhibition at 10 µM (HCC-2998): 52%; inhibition at 10 µM (MCF7): 83.8%; inhibition at 10 µM (TK-10): 41.8%; inhibition at 10 µM (T-47D): 55.2%; inhibition at 10 µM (NCI-H522): 34.2%; inhibition at 10 µM (U251): 53.1%; inhibition at 10 µM (SK-OV-3): 49.1%; inhibition at 10 µM (UACC-62): 38.4%; inhibition at 10 µM (OVCAR-5): 48.8%; inhibition at 10 µM (OVCAR-4): 60%; inhibition at 10 µM (LOX IMVI): 73.9%
4 | Fc1cccc(CNc2c3ccccc3nc3ccccc23)c1 [Compound 9, Acridin-9-yl-(3-fluorobenzyl)-amine] | 67.2 | 69.9 | 18.6 | 70.8 | 73.1 | 59.8 | 51 | 66.1 | 49.5 | 87.3 | 61.2 | 74.8 | 41.9 | 52.1 | 99.4 | 67.2 | 113 | 86.6 | 104 | 89.9 | inhibition at 10 µM (SNB-19): 64.1%; inhibition at 10 µM (HCC-2998): 70.1%; inhibition at 10 µM (MCF7): 92.1%; inhibition at 10 µM (TK-10): 35.9%; inhibition at 10 µM (T-47D): 57.3%; inhibition at 10 µM (NCI-H522): 62.2%; inhibition at 10 µM (U251): 64.8%; inhibition at 10 µM (SK-OV-3): 48.9%; inhibition at 10 µM (UACC-62): 49.7%; inhibition at 10 µM (OVCAR-5): 56.2%; inhibition at 10 µM (OVCAR-4): 69.5%; inhibition at 10 µM (LOX IMVI): 87.7%
